Assay results: US20240116973A1, “MODIFIED OLIGONUCLEOTIDES” (ALNYLAM PHARMACEUTICALS, INC., priority 2021, published 2024)

Columns and labels:
[1] = system: adenosine deaminase; experiment: Adenosine deaminase assay in human liver S9 fractions; assay type: in vitro ADME; conditions: 1 μM nucleoside, 1 mg/mL human liver S9, pH 7.4, with/without 1 mM NADPH, up to 2 hours, LC-MS
Description: In the adenosine deaminase assays, 2′-fluoroadenosie was used as a positive control for the deaminase activity: […]

[2] = molecular target: T1, human mitochondrial RNA polymerase POLRMT (Homo sapiens, UniProt O00411); experiment: POLRMT primer extension (polymerase incorporation) assay; assay type: biochemical; conditions: single NTP 100 μM or 1 mM, 37° C., 30 min, IEX-HPLC fluorescence
T1 construct: purchased Indigo Biosciences MV100-40
Description: Purified exonuclease activity-deficient human mitochondrial DNA polymerase POLG was obtained from the lab of Prof. William Copeland (National Institute of Environmental Health Science, Durham, NC, USA). Human mitochondrial POLRMT was purchased from Indigo Biosciences (Cat #MV100-40). Atto-425-labelled DNA and RNA primers were synthesized in house; DNA templates were obtained from IDT.
The assays are designed for single NT addition on appropriate template/primer sets: • Atto-425 labeled primers allow for high sensitivity fluorescence detection with very low reaction volumes • Analytical IEX-HPLC with fluorescence detection for optimal resolution of primer-extended products—especially important in competition mixtures • Assays can be applied for the assessment of incorporation efficiency of novel chemistries.
Reaction conditions for the POLG incorporation assays were as follows: 100 nM DNA template, 100 nM 5′-Atto-425-labelled DNA primer, 40 units POLG, 100 μM or 1 mM NTP substrate in 20 mM Tris-HCl, pH 8.0, 2 mM β-mercaptoethanol, 0.1 mg/mL bovine serum albumin, 10 mM MgCl2. Reactions were incubated at 37° C. for 30 min. Reactions were quenched by heating the reaction mixture to 85° C. for 5 min. The reaction mixtures were diluted with water to a final primer concentration of approximately 2.5 nM and analysed by IEX-HPLC with an attached fluorescence detector (excitation wavelength: 436 nm, emission wavelength: 485 nm) and a Dionex BioLCDNAPac PA200 4×250 mm (8 μm particle size) column. […] The reaction mixtures were diluted with water to a final primer concentration of approximately 2.5 nM and analysed by IEX-HPLC as described above, except that the gradient was 35% to 40% buffer B in 16 min.
Recognition of 2′F—N6MeA NTPs by POLRMT and PolGamma: Incorporation of 2′F—N6MeA, RNA, and 2′-F-RNA NTP monomers were evaluated in a previously reported in vitro primer extension assays catalyzed by the human mitochondrial RNA polymerase POLRMT and human mitochondrial DNA polymerase PolGamma. […]

[3] = molecular target: T2, human mitochondrial DNA polymerase POLG (Homo sapiens, UniProt P54098, D198A/E200A); experiment: POLG (Pol-γ) primer extension (polymerase incorporation) assay; assay type: biochemical; conditions: single NTP 100 μM or 1 mM, 37° C., 30 min, IEX-HPLC fluorescence
T2 construct: lab of Prof; William Copeland (National Institute of Environmental Health Science, Durham, NC, USA)
T2 sequence (P54098 26-1239 D198A/E200A limits assumed): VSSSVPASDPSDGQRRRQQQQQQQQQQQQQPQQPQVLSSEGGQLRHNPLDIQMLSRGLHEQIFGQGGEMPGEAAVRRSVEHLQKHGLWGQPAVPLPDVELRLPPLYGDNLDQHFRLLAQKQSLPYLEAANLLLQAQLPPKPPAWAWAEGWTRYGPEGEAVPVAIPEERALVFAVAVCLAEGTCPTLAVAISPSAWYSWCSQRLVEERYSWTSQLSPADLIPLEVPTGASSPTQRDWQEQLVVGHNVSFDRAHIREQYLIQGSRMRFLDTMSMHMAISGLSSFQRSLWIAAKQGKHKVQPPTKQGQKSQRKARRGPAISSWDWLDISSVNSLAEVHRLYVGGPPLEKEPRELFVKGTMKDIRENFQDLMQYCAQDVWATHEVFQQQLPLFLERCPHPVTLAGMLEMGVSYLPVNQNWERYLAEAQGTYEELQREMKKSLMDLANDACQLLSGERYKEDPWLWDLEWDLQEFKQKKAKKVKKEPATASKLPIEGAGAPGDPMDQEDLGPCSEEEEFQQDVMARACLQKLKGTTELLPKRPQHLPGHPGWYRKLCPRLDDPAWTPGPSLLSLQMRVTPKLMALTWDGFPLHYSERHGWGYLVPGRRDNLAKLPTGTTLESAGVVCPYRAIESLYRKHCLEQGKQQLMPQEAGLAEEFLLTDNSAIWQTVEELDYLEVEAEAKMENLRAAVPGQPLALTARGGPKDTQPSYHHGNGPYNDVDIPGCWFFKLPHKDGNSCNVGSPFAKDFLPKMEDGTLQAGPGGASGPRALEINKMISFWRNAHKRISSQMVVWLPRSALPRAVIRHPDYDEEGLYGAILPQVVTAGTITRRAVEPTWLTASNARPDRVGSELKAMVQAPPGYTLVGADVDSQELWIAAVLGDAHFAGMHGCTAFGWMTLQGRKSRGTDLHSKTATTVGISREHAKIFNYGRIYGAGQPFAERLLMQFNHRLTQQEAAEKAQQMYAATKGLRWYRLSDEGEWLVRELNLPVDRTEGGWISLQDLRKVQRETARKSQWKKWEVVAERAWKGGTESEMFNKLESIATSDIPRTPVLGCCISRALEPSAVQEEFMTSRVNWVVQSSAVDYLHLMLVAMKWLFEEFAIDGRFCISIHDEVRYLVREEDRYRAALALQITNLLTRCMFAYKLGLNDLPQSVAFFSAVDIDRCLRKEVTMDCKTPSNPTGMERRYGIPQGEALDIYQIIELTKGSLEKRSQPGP
Procedure: Purified exonuclease activity-deficient human mitochondrial DNA polymerase POLG was obtained from the lab of Prof. William Copeland (National Institute of Environmental Health Science, Durham, NC, USA). Human mitochondrial POLRMT was purchased from Indigo Biosciences (Cat #MV100-40).
Buffer A was 20 mM sodium phosphate, 15% ACN, pH 11; and buffer B was 20 mM sodium phosphate, 15% ACN, 1 M NaBr, pH 11. […] Briefly, a 5′-fluorescently labeled primer and template were incubated […], and the primer extension reaction was monitored via fluorescence detection ion-exchange high-performance liquid chromatography.

T1 sequence (O00411 42-1230): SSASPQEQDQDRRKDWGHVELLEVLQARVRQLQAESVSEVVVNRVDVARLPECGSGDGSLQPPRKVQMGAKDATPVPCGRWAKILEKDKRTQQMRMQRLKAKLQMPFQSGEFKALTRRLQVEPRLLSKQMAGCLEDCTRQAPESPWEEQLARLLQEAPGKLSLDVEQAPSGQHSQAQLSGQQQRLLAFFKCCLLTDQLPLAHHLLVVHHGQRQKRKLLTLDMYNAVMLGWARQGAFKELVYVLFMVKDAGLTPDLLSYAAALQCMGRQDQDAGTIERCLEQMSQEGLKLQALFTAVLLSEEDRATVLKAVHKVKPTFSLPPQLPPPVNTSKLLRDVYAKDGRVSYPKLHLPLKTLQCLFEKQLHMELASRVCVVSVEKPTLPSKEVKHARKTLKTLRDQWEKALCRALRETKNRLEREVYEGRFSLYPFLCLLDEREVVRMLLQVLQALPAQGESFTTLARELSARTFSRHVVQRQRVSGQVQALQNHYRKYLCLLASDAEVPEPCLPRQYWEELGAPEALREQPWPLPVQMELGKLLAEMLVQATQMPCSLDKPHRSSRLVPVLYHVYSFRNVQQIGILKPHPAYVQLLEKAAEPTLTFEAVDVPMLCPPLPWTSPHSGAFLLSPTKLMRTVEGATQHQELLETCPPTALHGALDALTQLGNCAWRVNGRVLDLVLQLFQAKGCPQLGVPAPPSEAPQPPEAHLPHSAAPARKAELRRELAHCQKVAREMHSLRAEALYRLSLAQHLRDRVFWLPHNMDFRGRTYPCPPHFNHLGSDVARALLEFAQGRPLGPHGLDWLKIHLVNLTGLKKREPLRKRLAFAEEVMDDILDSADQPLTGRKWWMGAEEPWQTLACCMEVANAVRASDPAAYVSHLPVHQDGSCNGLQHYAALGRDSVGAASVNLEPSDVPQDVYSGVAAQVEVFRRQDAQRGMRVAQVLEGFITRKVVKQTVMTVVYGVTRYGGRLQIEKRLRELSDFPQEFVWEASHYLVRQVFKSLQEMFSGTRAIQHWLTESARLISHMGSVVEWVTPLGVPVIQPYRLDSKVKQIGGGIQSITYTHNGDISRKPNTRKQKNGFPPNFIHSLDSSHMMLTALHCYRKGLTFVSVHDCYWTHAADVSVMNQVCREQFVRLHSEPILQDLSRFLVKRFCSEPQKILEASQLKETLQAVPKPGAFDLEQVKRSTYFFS

Nc1ncnc2c1ncn2[C@@H]1O[C@H](CO)[C@H](O)C1F (stereo partly shown) [2′-fluoro-adenosine, reference compound]
Deaminated metabolite (adenine to inosine conversion) [1]: formation of deaminated metabolite

CNc1ncnc2c1ncn2[C@@H]1O[C@H](COP(=O)(O)OP(=O)(O)OP(=O)(O)O)[C@@H](O)[C@H]1F [2′Fluoro-N6Methyl-Atp triphosphate, ((2R,3R,4R,5R)-4-fluoro-3-hydroxy-5-(6-(methylamino)-9H-purin-9-yl)tetrahydrofuran-2-yl)methyl triphosphate]
PolRMT Incorporation [2]: Yes | PolRMT Incorporation ([2]; listed as 2′F—N6MeA NTP): good substrate | Pol-γ Incorporation [3]: Yes | Pol-γ Incorporation ([3]; listed as 2′F—N6MeA NTP): good substrate

COC1C(O)[C@@H](CO)O[C@H]1n1cnc2c(NC(C)C)ncnc21 (stereo partly drawn) [Compound 45, (2R,5R)-2-(hydroxymethyl)-5-[6-(isopropylamino)purin-9-yl]-4-methoxy-tetrahydrofuran-3-ol]
Deaminated metabolite (adenine to inosine conversion) [1]: no deaminated metabolites were observed

Nc1ncnc2c1ncn2[C@@H]1O[C@H](COP(=O)(O)OP(=O)(O)OP(=O)(O)O)[C@@H](O)[C@H]1O [rATP, reference compound]
PolRMT Incorporation [2]: efficiently incorporated
